Each compound was assayed against jack bean urease (Canavalia ensiformis, UniProt P07374) (assay: biochemical). Conditions: not given.
Assay type: biochemical
Method: The urease inhibitory activity was measured according to a reported method with slight modifications. The enzyme (5 U/mL; 10 μL) and test compound in buffer (10 μL) were sequentially added to 40 μL of buffer (pH 8.2) containing 100 mM urea, 1 mM EDTA, 0.01 M K2HPO4 and 0.01 M […]. The mixture was pre-incubated for 30 min at 37 °C. The reaction was initiated by the addition of 40 μL of phenol reagent (1%, w/v phenol, 0.005%, w/v sodium nitroprusside) and 40 μL of alkali reagent (0.5%, w/v NaOH, 0.1% active chloride NaOCl) to each well. After 10 min of incubation at 37 °C, the absorbance was measured at 630 nm using a Microplate reader (Bio-Tek ELx 800^TM, Instruments, Inc. USA). All the experiments were carried out with their respective controls in triplicate. Thiourea (0.1 mM well^−1) was used as a positive control.

Chain of jack bean urease (P07374 whole entry, looked up): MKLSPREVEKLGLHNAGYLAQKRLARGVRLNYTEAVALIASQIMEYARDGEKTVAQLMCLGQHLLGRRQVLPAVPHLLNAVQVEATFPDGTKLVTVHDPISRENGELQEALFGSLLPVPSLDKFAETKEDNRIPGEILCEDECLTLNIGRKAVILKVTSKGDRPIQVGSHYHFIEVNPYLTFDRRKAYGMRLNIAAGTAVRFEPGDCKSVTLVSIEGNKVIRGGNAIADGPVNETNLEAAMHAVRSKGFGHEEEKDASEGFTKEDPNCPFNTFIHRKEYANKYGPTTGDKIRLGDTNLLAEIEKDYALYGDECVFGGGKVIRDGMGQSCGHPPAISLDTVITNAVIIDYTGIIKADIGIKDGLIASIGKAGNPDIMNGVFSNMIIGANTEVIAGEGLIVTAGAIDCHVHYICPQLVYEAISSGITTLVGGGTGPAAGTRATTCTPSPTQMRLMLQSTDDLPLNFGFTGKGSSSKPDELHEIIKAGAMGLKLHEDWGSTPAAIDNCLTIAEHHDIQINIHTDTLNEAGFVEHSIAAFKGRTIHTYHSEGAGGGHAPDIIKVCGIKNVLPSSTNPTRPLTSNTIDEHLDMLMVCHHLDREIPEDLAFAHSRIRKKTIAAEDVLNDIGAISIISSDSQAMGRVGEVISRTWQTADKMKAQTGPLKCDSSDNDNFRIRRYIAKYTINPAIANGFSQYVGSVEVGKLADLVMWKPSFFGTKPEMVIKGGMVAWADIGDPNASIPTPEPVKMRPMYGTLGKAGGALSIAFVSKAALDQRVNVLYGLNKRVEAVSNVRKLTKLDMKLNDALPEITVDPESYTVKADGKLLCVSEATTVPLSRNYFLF

Row | Compound | IC50
1 | S=C1NCCN1 [I, imidazolidine-2-thione] | 232 ± 27 µM
2 | S=C1NCCCN1 [II, 1,3-diazinane-2-thione] | 118 ± 13 µM

Same assay, conditions: enzyme 5 U/mL, 100 mM urea, buffer pH 8.2, 30 min pre-incubation at 37 °C, absorbance at 630 nm, triplicate; read-out: Inhibitory activity IC50 against jack bean urease

Row | Compound | IC50
3 | NC(N)=S [Thiourea] | 22.1 ± 1.4 µM
4 | [Chlorido(η^6-p-cymene)(1,3-diazinane-2-thione)(triphenylphosphine)ruthenium(II)] hexafluoro-phosphate [Compound 12] | > 600 µM
5 | [Chlorido(η^6-p-cymene)(1H-benzo[d]imidazole-2(3H)-thione)(triphenylphosphine)ruthenium(II)] hexafluorophosphate [Compound 13] | > 600 µM
6 | [Chlorido(η^6-p-cymene)(imidazolidine-2-thione)(triphenylphosphine)ruthenium(II)] hexafluoro-phosphate [Compound 11] | > 600 µM
7 | [Dichlorido(1,3-diazinane-2-thione)(η^6-p-cymene)ruthenium(II)] [Compound 7] | > 600 µM
8 | [Dichlorido(1H-benzo[d]imidazole-2(3H)-thione)(η^6-p-cymene)ruthenium(II)] [Compound 8] | > 600 µM
9 | [Dichlorido(imidazolidine-2-thione)(η^6-biphenyl)ruthenium(II)] [Compound 10] | > 600 µM
10 | [Dichlorido(imidazolidine-2-thione)(η^6-toluene)ruthenium(II)] [Compound 9] | > 600 µM

Same assay, conditions: jack bean urease; compared to thiourea as positive control

Row | Compound | urease inhibitory activity (in words)
11 | S=C1NCCCN1 [II, 1,3-diazinane-2-thione] | most active in the tested series

Same assay, conditions: jack bean urease; thiourea vs II

Row | Compound | fold more active than compound II (IC50 ratio)
12 | NC(N)=S [Thiourea] | more than 5 times
